Where “and” joins values, the source holds several entries; their conditions need not be identical. Identical values can stand only once. Like-named read-outs stand apart in the source and are kept apart here. Marks after values point to notes of the source that are not given here.
How the values were obtained:
[1] = tested on: rumen protein digestion; assay: In vitro fermentation of protein meals with metal ions: RUP after 16 h; settings: for Mean RUP: 150 mg/L metal ions, 16 h of fermentation
[2] = tested on: rumen protein digestion; assay: In vitro digestion in artificial rumen system (Ankom Daisy): rumen protein digestion
Experimental: Metals were incorporated at 150 or 300 mg/L. […] Previous efforts focused on the digestion of high protein feeds such as oilseed meals.

[3] = tested on: rumen starch digestion; assay: In vitro starch digestion and pH in artificial rumen system (Ankom Daisy)
Experimental: In vitro digestions of a complete dairy pellet, and a dairy total mixed ration TMR) were performed using an artificial rumen system (Ankom Daisy system) to evaluate the effects of metal ions on rumen starch digestion.

[4] = tested on: crossbred wether lambs; assay: Performance of lambs receiving zinc or zinc, manganese, iron combinations; type: in vivo; settings: 16% CP, Low RUP diet plus metal sulfates (about 500 ppm total metal)
Experimental: Individually fed crossbred wether lambs were fed diets containing 14% CP (as a negative control) or 16% CP with low or high RUP content to examine the feeding of divalent metals singly or in combination. Bypass protein content was increased by feeding higher amounts of heat-treated soybean meal. In the 16%, Low RUP diet, the following metal additions were tested: 500 ppm Zn; 250 ppm Zn:250 ppm Mn; and 170 ppm Zn: 170 ppm Mn: 170 ppm Fe. All metals were added in the sulfate form, and iron was in the form of ferrous sulfate. Feeding the 16% CP: High RUP diet or adding metals to the 16% CP: Low RUP tended to decrease gain and feed efficiency with only small effects on feed intake relative to that obtained with the 16%, low RUP diet (Table 6).
For instance, Table 6A presents the data of Table 6 in a different format. The average body weight is determined by dividing the sum of the initial weight and the 42 day weight of the lamb by 2.

[5] = tested on: Holstein cows; settings: complete feed 1020 ppm of zinc, six weeks
Text: The source of RUP was a combination of heated soybean meal, corn gluten meal, and distiller dried grains.

[6] = tested on: lactating dairy cows; settings: for Dry matter intake / Intestinal Amino Acid flows, Lysine / Intestinal Amino Acid flows, Methionine / Intestinal Amino Acid flows, Total Essential Amino Acids / Ruminal digestion, Neutral Detergent Fiber / Ruminal digestion, Organic Matter / Ruminal digestion, Starch: additional 250 ppm zinc
Experimental: The concentration of RUP in high and low RUP diets were manipulated by changing the proportions of low RUP feeds (soybean meal, canola) and high RUP feeds (heated soybean meal, corn gluten meal).
Using the data presented in Table 8, the amount of metal ions fed to the cows can also be expressed in grams of metal ions per kilogram of the cow's body weight per day. For instance, Table 8A presents the data of Table 8 in a different format. The average body weight is determined by the fact that an average mature dairy cow weighs about 640 kg. The grams of metal ions fed to the cow per kg of the cow's body weight per day is determined by: multiplying the DMI (kg/day) times the metal ion concentration (grams of metal ions per kg of dry feed), resulting in the amount of metal ions in grams fed to the cow per day; the amount of metal ions in grams fed to the cow per day is divided by the average body weight of the cow, thus resulting in the grams of metal ions fed to the cow per kg of the cow's body weight per day.

[Cl][Fe]([Cl])[Cl] [Ferric Iron]
Mean RUP ([1]; Canola): 51.6^ab
Mean RUP ([1]; Cottonseed): 58.4^b
Mean RUP ([1]; Heated Canola): 81.1^a
Mean RUP ([1]; Heated SBM): 81.7^ab
Mean RUP ([1]; SBM): 29.1^a

O=S(=O)([O-])[O-].[Zn+2] [Zinc, zinc sulfate]
Average rumen undegraded protein for all samples [2]: 45 % of protein and 48 % of protein
Mean RUP ([1]; Canola): 57.3^b
Mean RUP ([1]; Cottonseed): 64.4^c
Mean RUP ([1]; Heated Canola): 85.2^b
Mean RUP ([1]; Heated SBM): 85.2^b
Mean RUP ([1]; SBM): 56.4^c
Ammonia [3]: 30.8 mg/dL and 29.7 mg/dL
Ammonia, Main Effects [3]: -1.1 mg/dL
Digestion Rates, Rumen Undegraded Starch (16 hours), Main Effects [3]: .038** % per hour
Digestion Rates, pH Decline, Main Effects [3]: −.027 % per hour
Rumen Undegraded Starch (16 hours) [3]: 13.2% and 12.0%
Rumen Undegraded Starch (16 hours), Main Effects [3]: 4.0%
calculated kinetic rate for starch digestion [3]: decreased
pH at 16 hours, Main Effects [3]: .05*
pH at 48 hours, Main Effects [3]: .05
rumen undegraded starch measured at 16 h [3]: increased
ADG (average daily gain) [4]: 451^a,b g/day
G/F × 100 (ratio of weight gain to feed intake) [4]: 27.3^b
Total Gain [4]: 18.81^a kg
42 day weight ([4]; listed as Zn): 43.8^a kg and 43.8 kg
DMI (dry matter intake) ([4]; listed as Zn): 1.66^a kg/day and 1.66 kg/day
Milk [5]: 33.2 kg/day
Milk Fat [5]: 3.25%
Milk Protein [5]: 3.20%
Dry matter intake ([6]; High RUP diet): 22.2 kg/day
Intestinal Amino Acid flows, Lysine ([6]; High RUP diet): 200.0 g/day
Intestinal Amino Acid flows, Methionine ([6]; High RUP diet): 58.2 g/day
Intestinal Amino Acid flows, Total Essential Amino Acids ([6]; High RUP diet): 1601 g/day
Ruminal digestion, Neutral Detergent Fiber ([6]; High RUP diet): 24.8 % of intake
Ruminal digestion, Organic Matter ([6]; High RUP diet): 45.5 % of intake
Ruminal digestion, Starch ([6]; High RUP diet): 52.8 % of intake
Dry matter intake ([6]; Low RUP diet): 21.8 kg/day
Intestinal Amino Acid flows, Lysine ([6]; Low RUP diet): 183.3 g/day
Intestinal Amino Acid flows, Methionine ([6]; Low RUP diet): 49.0 g/day
Intestinal Amino Acid flows, Total Essential Amino Acids ([6]; Low RUP diet): 1331 g/day
Ruminal digestion, Neutral Detergent Fiber ([6]; Low RUP diet): 22.0 % of intake
Ruminal digestion, Organic Matter ([6]; Low RUP diet): 47.3 % of intake
Ruminal digestion, Starch ([6]; Low RUP diet): 53.6 % of intake
digestion of starch in the rumen ([6]; both the low and high RUP diets, in words): reduced

ferrous sulfate [Ferrous Iron]
decreasing rumen protein digestion, effectiveness ([1]; 150 mg/L, in words): substantially more effective than the ferric ion
Mean RUP ([1]; Canola): 57.7^b
Mean RUP ([1]; Cottonseed): 62.1^bc
Mean RUP ([1]; Heated Canola): 83.5^b
Mean RUP ([1]; Heated SBM): 83.9^b
Mean RUP ([1]; SBM): 42.9^b

manganous sulfate [Manganese]
rumen undegraded protein ([2]; Alfalfa Haylage, 150 mg/L): 26.1
rumen undegraded protein ([2]; Alfalfa Haylage, 300 mg/L): 24.8
rumen undegraded protein ([2]; Dairy Concentrate Feeds, 150 mg/L): 50.9
rumen undegraded protein ([2]; Dairy Concentrate Feeds, 300 mg/L): 52.3
Average rumen undegraded protein for all samples ([2]; metal inclusion 150 mg/L): 43.2 % of protein
Average rumen undegraded protein for all samples ([2]; metal inclusion 300 mg/L): 42.5 % of protein
Ammonia ([3]; 150 mg/L metal): 32.1 mg/dL
Digestion Rates, Rumen Undegraded Starch (16 hours) ([3]; 150 mg/L metal): −.137 % per hour
Digestion Rates, pH Decline ([3]; 150 mg/L metal): .135 % per hour
Rumen Undegraded Starch (16 hours) ([3]; 150 mg/L metal): 5.1%
pH at 16 hours ([3]; 150 mg/L metal): −.28
pH at 48 hours ([3]; 150 mg/L metal): −.30
Ammonia ([3]; 300 mg/L metal): 34.2 mg/dL
Digestion Rates, Rumen Undegraded Starch (16 hours) ([3]; 300 mg/L metal): −.132 % per hour
Digestion Rates, pH Decline ([3]; 300 mg/L metal): .247 % per hour
Rumen Undegraded Starch (16 hours) ([3]; 300 mg/L metal): 8.0%
pH at 16 hours ([3]; 300 mg/L metal): −.34
pH at 48 hours ([3]; 300 mg/L metal): −.27
Ammonia, Main Effects ([3]; main effect of metal): 1.8 mg/dL
Digestion Rates, Rumen Undegraded Starch (16 hours), Main Effects ([3]; main effect of metal): 0.0 % per hour
Digestion Rates, pH Decline, Main Effects ([3]; main effect of metal): −.043 % per hour
Rumen Undegraded Starch (16 hours), Main Effects ([3]; main effect of metal): −2.0%
pH at 16 hours, Main Effects ([3]; main effect of metal): .05*
pH at 48 hours, Main Effects ([3]; main effect of metal): .03

Source: patent publication US7951408B2, “Methods of feeding animals” (ADM Alliance Nutrition Inc., priority 2001, dated 2011)
